Like-named read-outs stand apart in the source and are kept apart here.
Test: Phase 1 four-period crossover study of relative bioavailability and food effect, Compound 1 Capsules vs Oral Solution, plasma PK
Assay type: in vivo, human
Details: for AUC(0-inf) / AUC(0-t) / Cmax / half-life / Tmax: human, po; for AUC(0-inf) / AUC(0-t) / Cmax / half-life / Tmax / AUC0-inf, geometric mean / AUC0-t, geometric mean / Cmax, geometric mean: plasma, healthy subjects; for AUC(0-inf) / AUC(0-t) / Cmax / half-life / Tmax / AUC0-inf geometric mean ratio (GMR) Test/Reference / AUC0-t geometric mean ratio (GMR) Test/Reference / Cmax geometric mean ratio (GMR) Test/Reference: 30 mg; for Tmax: read-out: tmax, median
Method: In a Phase 1, single-center, open-label, four-period, two-sequence crossover study, Compound 1 capsules were evaluated for safety, tolerability, and relative bioavailability. Twelve (12) subjects completed all four periods of the study; subjects who replaced discontinued subjects were allocated to the same randomization sequence as those discontinued. Up to 24 subjects were recruited into the study.
This study consisted of four periods:
Period 1: Subjects (N=20) were randomized on a 1:1 basis to receive a single 30-mg dose of Compound 1 Capsules or a single 30-mg dose of Compound 1 Oral Solution on Day 1. Study drug was administered in the fasting state. Subjects were confined to the inpatient facility from Day −1 until they were discharged on Day 3.
On Day 8, study drug was administered in the fasting state. Subjects were confined to the inpatient facility from Day 7 until they were discharged on Day 10.
Period 3: Food Effect (high fat): All subjects received a single 30 mg dose of Compound 1 Capsules on Day 15. Study drug was administered after a high-fat meal. Subjects were confined to the inpatient facility from Day 14 until they were discharged on Day 17.
Period 4: Food Effect (standard): All subjects received a single 30 mg dose of Compound 1 Capsules on Day 22. Study drug was administered after a standard meal. Subjects were confined to the inpatient facility from Day 21 until they were discharged on Day 24.
Subjects were admitted on the day before the dose was scheduled to be administered (i.e., on Day −1, Day 7, Day 14 and Day 21) in order to undergo the predose assessments.
The Compound 1 Capsules dose was administered as two capsules with 8 ounces (240 mL) of water; both capsules were to be swallowed as quickly as possible. Compound 1 Oral Solution was prepared as approximately 40 mL, to be swallowed all at once, followed by approximately 200 mL of water that was used to rinse the dosing bottle approximately five times. The time of swallowing the initial 40 mL solution or capsules was the time zero for all assessments.
Subjects were not allowed to consume water for 1 hour before and after dosing, except for water consumed during dosing. After 1 hour postdose, water was allowed ad libitum. Subjects were required to fast overnight (minimum of 10 hours) prior to the scheduled dosing. In periods 1 and 2, subjects were administered a standard meal 4 or more hours after the dose was administered.
(§1) In period 3 (food effect high-fat meal), subjects were administered a high-fat meal 30 minutes prior to administration of the Compound 1 Capsules. Subjects should have eaten this meal in 30 minutes or less, and the Compound 1 dose was administered 30 minutes after the start of the meal. No other food was allowed for at least 4 hours postdose.
as §1, with “period 4” for “period 3”, “effect standard” for “effect high-fat”, “a standard” for “a high-fat”, “after” for “after the”
Plasma samples were collected for PK analysis of Compound 1 at the following sampling times relative to dosing in each period: predose on Day 1 and at 15 and 30 minutes and 1, 1.5, 2, 3, 4, 6, 8, 10, 12, 16, 24 (Day 2), and 48 (Day 3) hours postdose.
The plasma samples were kept frozen at approximately −70 to −80° C. until analyzed. They were packed as directed to avoid breakage during transit and with sufficient dry ice to prevent thawing for at least 72 hours. A specimen-identification form or equivalent was completed and sent to the laboratory with each set of samples.
Bioanalyses of plasma samples for the determination of Compound 1 were conducted utilizing validated LC-MS/MS methods at Agilux Laboratories, Worcester, MA.
The BLQ values between evaluable concentrations and the terminal BLQ values were set to ‘missing’. […]

[1] = single 30 mg oral dose, Capsules, fed [high-fat meal]
[2] = single 30 mg oral dose, Capsules, fed [standard meal]
[3] = single 30-mg oral dose, Capsules, fasted
[4] = single 30-mg oral dose, Oral Solution, fasted
[5] = test Fasted Capsules / reference Fasted Solution
[6] = test Fed Capsules [Standard meal] / reference Fasted Capsules
[7] = test Fed Capsules [Standard meal] / reference Fasted Solution
[8] = test Fed Capsules [high-fat meal] / reference Fasted Capsules
[9] = test Fed Capsules [high-fat meal] / reference Fasted Solution

C[C@@]1(O)CC[C@H]2[C@H](CC[C@@H]3[C@@H]2CC[C@]2(C)[C@@H](C(=O)Cn4cc(C#N)cn4)CC[C@@H]32)C1 [Compound 1, 1-(2-((3R,5R,8R,9R,10S,13S,14S,17S)-3-hydroxy-3,13-dimethylhexadecahydro-1H-cyclopenta[a]phenanthren-17-yl)-2-oxoethyl)-1H-pyrazole-4-carbonitrile]
AUC(0-inf) (single 30 mg oral dose, Capsules, fed [high-fat meal], read-out: AUC0-inf, arithmetic mean): 896 ng·h/mL
AUC(0-inf) (single 30 mg oral dose, Capsules, fed [high-fat meal], read-out: AUC0-inf, geometric mean): 867 ng·h/mL
AUC(0-inf) (single 30 mg oral dose, Capsules, fed [high-fat meal], read-out: AUC0-inf, median): 878 ng·h/mL
AUC(0-t) (single 30 mg oral dose, Capsules, fed [high-fat meal], read-out: AUC0-t, arithmetic mean): 846 ng·h/mL
AUC(0-t) (single 30 mg oral dose, Capsules, fed [high-fat meal], read-out: AUC0-t, geometric mean): 834 ng·h/mL
AUC(0-t) (single 30 mg oral dose, Capsules, fed [high-fat meal], read-out: AUC0-t, median): 822 ng·h/mL
Cmax (single 30 mg oral dose, Capsules, fed [high-fat meal], read-out: Cmax, arithmetic mean): 64.4 ng/mL
Cmax (single 30 mg oral dose, Capsules, fed [high-fat meal], read-out: Cmax, geometric mean): 62.8 ng/mL
Cmax (single 30 mg oral dose, Capsules, fed [high-fat meal], read-out: Cmax, median): 66.3 ng/mL
half-life (single 30 mg oral dose, Capsules, fed [high-fat meal], read-out: t1/2, arithmetic mean (converted)): 12.9 h
half-life (single 30 mg oral dose, Capsules, fed [high-fat meal], read-out: t1/2, median (converted)): 12.7 h
Tmax [1]: 5.97 h
AUC(0-inf) (single 30 mg oral dose, Capsules, fed [standard meal], read-out: AUC0-inf, arithmetic mean): 1020 ng·h/mL
AUC(0-inf) (single 30 mg oral dose, Capsules, fed [standard meal], read-out: AUC0-inf, geometric mean): 1010 ng·h/mL
AUC(0-inf) (single 30 mg oral dose, Capsules, fed [standard meal], read-out: AUC0-inf, median): 1060 ng·h/mL
AUC(0-t) (single 30 mg oral dose, Capsules, fed [standard meal], read-out: AUC0-t, arithmetic mean): 852 ng·h/mL
AUC(0-t) (single 30 mg oral dose, Capsules, fed [standard meal], read-out: AUC0-t, geometric mean): 838 ng·h/mL
AUC(0-t) (single 30 mg oral dose, Capsules, fed [standard meal], read-out: AUC0-t, median): 881 ng·h/mL
Cmax (single 30 mg oral dose, Capsules, fed [standard meal], read-out: Cmax, arithmetic mean): 65.2 ng/mL
Cmax (single 30 mg oral dose, Capsules, fed [standard meal], read-out: Cmax, geometric mean): 63.1 ng/mL
Cmax (single 30 mg oral dose, Capsules, fed [standard meal], read-out: Cmax, median): 63.2 ng/mL
half-life (single 30 mg oral dose, Capsules, fed [standard meal], read-out: t1/2, arithmetic mean (converted)): 14.9 h
half-life (single 30 mg oral dose, Capsules, fed [standard meal], read-out: t1/2, median (converted)): 15.8 h
Tmax [2]: 4 h
AUC(0-inf) (single 30-mg oral dose, Capsules, fasted, read-out: AUC0-inf, arithmetic mean): 642 ng·h/mL
AUC(0-inf) (single 30-mg oral dose, Capsules, fasted, read-out: AUC0-inf, geometric mean): 640 ng·h/mL
AUC(0-inf) (single 30-mg oral dose, Capsules, fasted, read-out: AUC0-inf, median): 650 ng·h/mL
AUC(0-t) (single 30-mg oral dose, Capsules, fasted, read-out: AUC0-t, arithmetic mean): 544 ng·h/mL
AUC(0-t) (single 30-mg oral dose, Capsules, fasted, read-out: AUC0-t, geometric mean): 530 ng·h/mL
AUC(0-t) (single 30-mg oral dose, Capsules, fasted, read-out: AUC0-t, median): 552 ng·h/mL
Cmax (single 30-mg oral dose, Capsules, fasted, read-out: Cmax, arithmetic mean): 23 ng/mL
Cmax (single 30-mg oral dose, Capsules, fasted, read-out: Cmax, geometric mean): 21.8 ng/mL
Cmax (single 30-mg oral dose, Capsules, fasted, read-out: Cmax, median): 20.4 ng/mL
half-life (single 30-mg oral dose, Capsules, fasted, read-out: t1/2, arithmetic mean (converted)): 15.6 h
half-life (single 30-mg oral dose, Capsules, fasted, read-out: t1/2, median (converted)): 15.7 h
Tmax [3]: 4.02 h
AUC(0-inf) (single 30-mg oral dose, Oral Solution, fasted, read-out: AUC0-inf, arithmetic mean): 798 ng·h/mL
AUC(0-inf) (single 30-mg oral dose, Oral Solution, fasted, read-out: AUC0-inf, geometric mean): 770 ng·h/mL
AUC(0-inf) (single 30-mg oral dose, Oral Solution, fasted, read-out: AUC0-inf, median): 816 ng·h/mL
AUC(0-t) (single 30-mg oral dose, Oral Solution, fasted, read-out: AUC0-t, arithmetic mean): 795 ng·h/mL
AUC(0-t) (single 30-mg oral dose, Oral Solution, fasted, read-out: AUC0-t, geometric mean): 776 ng·h/mL
AUC(0-t) (single 30-mg oral dose, Oral Solution, fasted, read-out: AUC0-t, median): 788 ng·h/mL
Cmax (single 30-mg oral dose, Oral Solution, fasted, read-out: Cmax, arithmetic mean): 120 ng/mL
Cmax (single 30-mg oral dose, Oral Solution, fasted, read-out: Cmax, geometric mean): 114 ng/mL
Cmax (single 30-mg oral dose, Oral Solution, fasted, read-out: Cmax, median): 115 ng/mL
half-life (single 30-mg oral dose, Oral Solution, fasted, read-out: t1/2, arithmetic mean (converted)): 13.5 h
half-life (single 30-mg oral dose, Oral Solution, fasted, read-out: t1/2, median (converted)): 13.3 h
Tmax [4]: 1 h
AUC0-inf, geometric mean [1]: 866.90 ng·h/mL
AUC0-t, geometric mean [1]: 834.06 ng·h/mL
AUC0-inf, geometric mean [2]: 1013.04 ng·h/mL
AUC0-t, geometric mean [2]: 837.55 ng·h/mL
Cmax, geometric mean [2]: 63.12 ng/mL
AUC0-inf, geometric mean [3]: 639.69 ng·h/mL
AUC0-t, geometric mean [3]: 529.62 ng·h/mL
Cmax, geometric mean [3]: 21.81 ng/mL
AUC0-inf, geometric mean [4]: 770.31 ng·h/mL
AUC0-t, geometric mean [4]: 776.27 ng·h/mL
AUC0-inf geometric mean ratio (GMR) Test/Reference [5]: 0.830
AUC0-t geometric mean ratio (GMR) Test/Reference [5]: 0.682
Cmax geometric mean ratio (GMR) Test/Reference [5]: 0.191
AUC0-inf geometric mean ratio (GMR) Test/Reference [6]: 1.584
AUC0-t geometric mean ratio (GMR) Test/Reference [6]: 1.581
Cmax geometric mean ratio (GMR) Test/Reference [6]: 2.894
AUC0-inf geometric mean ratio (GMR) Test/Reference [7]: 1.315
AUC0-t geometric mean ratio (GMR) Test/Reference [7]: 1.079
Cmax geometric mean ratio (GMR) Test/Reference [7]: 0.552
AUC0-inf geometric mean ratio (GMR) Test/Reference [8]: 1.355
AUC0-t geometric mean ratio (GMR) Test/Reference [8]: 1.575
Cmax geometric mean ratio (GMR) Test/Reference [8]: 2.879
AUC0-inf geometric mean ratio (GMR) Test/Reference [9]: 1.125
AUC0-t geometric mean ratio (GMR) Test/Reference [9]: 1.074
Cmax geometric mean ratio (GMR) Test/Reference [9]: 0.549

— patent publication US20230310459A1, “NEUROACTIVE STEROIDS AND THEIR METHODS OF USE” (Sage Therapeutics, Inc., priority 2017, published 2023)
